Source: ChEMBL document CHEMBL3885861, “Open TG-GATES”

Organism: Rattus norvegicus
Assay: Open TG-GATES - Regimen: Single
Format: toxicity, organism-based, Sprague-Dawley
Set-up: regimen Single, gender Male, age 6 weeks
Conditions: in vivo, po, route gavage; for Bas / Eos / Fbg / Hb / Lym / MCH / MCHC / MCV / Mono / Neu / RBC / Ret / WBC / APTT: tissue Blood; for KIDNEY_L / KIDNEY_R / KIDNEY_TOTAL: tissue Kidney; for LIVER: tissue Liver; for ALP / ALT / AST / CRE / Ca / Cl / DBIL / GLC / IP / K / LDH / Na / PL / RALB / TBIL / TC / TG / TP / gamma-GTP: tissue Plasma
[1] = 75 mg/kg, 3 h, dose level Middle
[2] = 75 mg/kg, 6 h, dose level Middle
[3] = 75 mg/kg, 9 h, dose level Middle
[4] = 75 mg/kg, 24 h, dose level Middle
[5] = 250 mg/kg, 3 h, dose level High
[6] = 250 mg/kg, 6 h, dose level High
[7] = 250 mg/kg, 9 h, dose level High
[8] = 250 mg/kg, 24 h, dose level High

O=C1CN(/N=C/c2ccc(-c3ccc([N+](=O)[O-])cc3)o2)C(O)=N1 [DANTROLENE]
Bas [1]: 0%
Eos [1]: 1%
Fbg [1]: 217.6 mg/dL
Hb [1]: 14.2 g/dL
Lym [1]: 70.4%
MCH [1]: 22.7 pg
MCHC [1]: 34.1%
MCV [1]: 66.7 fL
Mono [1]: 8%
Neu [1]: 20.6%
RBC [1]: 623.6 x10_4/ul
Ret [1]: 10.8%
WBC [1]: 82.6 x10_2/uL
KIDNEY_L [1]: 0.9 g
KIDNEY_R [1]: 1 g
KIDNEY_TOTAL [1]: 1.9 g
LIVER [1]: 9.5 g
ALP [1]: 747.2 IU/L
ALT [1]: 32.4 IU/L
AST [1]: 60.2 IU/L
CRE [1]: 0.5 mg/dL
Ca [1]: 10.3 mg/dL
Cl [1]: 101.4 meq/L
DBIL [1]: 0.06 mg/dL
GLC [1]: 213.4 mg/dL
IP [1]: 11.1 mg/dL
K [1]: 4.7 meq/L
LDH [1]: 105.8 IU/L
Na [1]: 138 meq/L
PL [1]: 148.2 mg/dL
RALB [1]: 3.9 g/dL
TBIL [1]: 0.3 mg/dL
TC [1]: 85.4 mg/dL
TG [1]: 41.4 mg/dL
TP [1]: 5.7 g/dL
gamma-GTP [1]: 1.8 IU/L
TERMINAL_BW [2]: 191.2 g
APTT [2]: 17 s
Bas [2]: 0%
Eos [2]: 1%
Fbg [2]: 220.6 mg/dL
Hb [2]: 14.6 g/dL
Lym [2]: 73.2%
MCH [2]: 22.4 pg
MCHC [2]: 34.3%
MCV [2]: 65.2 fL
Mono [2]: 8.6%
Neu [2]: 17.2%
RBC [2]: 650.4 x10_4/ul
Ret [2]: 12.7%
WBC [2]: 82.9 x10_2/uL
KIDNEY_L [2]: 0.9 g
KIDNEY_R [2]: 0.9 g
KIDNEY_TOTAL [2]: 1.9 g
LIVER [2]: 9 g
ALP [2]: 749.6 IU/L
ALT [2]: 34 IU/L
AST [2]: 64.2 IU/L
CRE [2]: 0.5 mg/dL
Ca [2]: 10.3 mg/dL
Cl [2]: 102.8 meq/L
DBIL [2]: 0.06 mg/dL
GLC [2]: 211.4 mg/dL
IP [2]: 9.6 mg/dL
K [2]: 4.6 meq/L
LDH [2]: 102 IU/L
Na [2]: 138.8 meq/L
PL [2]: 141.8 mg/dL
RALB [2]: 3.8 g/dL
TBIL [2]: 0.3 mg/dL
TC [2]: 80.4 mg/dL
TG [2]: 30.4 mg/dL
TP [2]: 5.6 g/dL
gamma-GTP [2]: 1.6 IU/L
TERMINAL_BW [3]: 191.7 g
APTT [3]: 16.9 s
Bas [3]: 0%
Eos [3]: 1%
Fbg [3]: 217.8 mg/dL
Hb [3]: 14.3 g/dL
Lym [3]: 78.2%
MCH [3]: 21.6 pg
MCHC [3]: 32.9%
MCV [3]: 65.6 fL
Mono [3]: 7.4%
RBC [3]: 663.8 x10_4/ul
Ret [3]: 9.8%
WBC [3]: 74.6 x10_2/uL
KIDNEY_L [3]: 0.9 g
KIDNEY_R [3]: 0.9 g
KIDNEY_TOTAL [3]: 1.8 g
LIVER [3]: 8.2 g
ALP [3]: 710.6 IU/L
ALT [3]: 23.2 IU/L
AST [3]: 53 IU/L
CRE [3]: 0.5 mg/dL
Ca [3]: 10.4 mg/dL
Cl [3]: 105.2 meq/L
DBIL [3]: 0.054 mg/dL
GLC [3]: 205.8 mg/dL
IP [3]: 9.5 mg/dL
K [3]: 5.2 meq/L
LDH [3]: 103.2 IU/L
Na [3]: 138.2 meq/L
PL [3]: 148 mg/dL
RALB [3]: 3.8 g/dL
TBIL [3]: 0.4 mg/dL
TC [3]: 87.4 mg/dL
TG [3]: 26.4 mg/dL
TP [3]: 5.5 g/dL
gamma-GTP [3]: 1.6 IU/L
TERMINAL_BW [4]: 190.1 g
APTT [4]: 16.9 s
Bas [4]: 0%
Eos [4]: 0.8%
Fbg [4]: 202.2 mg/dL
Hb [4]: 13.8 g/dL
Lym [4]: 86.2%
MCH [4]: 21.9 pg
MCHC [4]: 33.6%
MCV [4]: 65.3 fL
Mono [4]: 7.2%
Neu [4]: 6.2%
RBC [4]: 631 x10_4/ul
Ret [4]: 11.5%
WBC [4]: 86.1 x10_2/uL
KIDNEY_L [4]: 0.9 g
KIDNEY_R [4]: 0.9 g
KIDNEY_TOTAL [4]: 1.9 g
LIVER [4]: 9 g
ALP [4]: 1061.6 IU/L
ALT [4]: 32.8 IU/L
AST [4]: 56.2 IU/L
CRE [4]: 0.5 mg/dL
Ca [4]: 10.9 mg/dL
Cl [4]: 105 meq/L
DBIL [4]: 0.018 mg/dL
GLC [4]: 189 mg/dL
IP [4]: 7.7 mg/dL
K [4]: 4.3 meq/L
LDH [4]: 104.6 IU/L
Na [4]: 141.4 meq/L
PL [4]: 147.8 mg/dL
RALB [4]: 3.9 g/dL
TBIL [4]: 0.4 mg/dL
TC [4]: 83.6 mg/dL
TG [4]: 73.2 mg/dL
TP [4]: 5.7 g/dL
gamma-GTP [4]: 1 IU/L
TERMINAL_BW [5]: 193.5 g
APTT [5]: 16.6 s
Bas [5]: 0%
Eos [5]: 1.4%
Fbg [5]: 218.2 mg/dL
Hb [5]: 14.5 g/dL
Lym [5]: 76.6%
MCH [5]: 22 pg
MCHC [5]: 34.2%
MCV [5]: 64.3 fL
Mono [5]: 6.8%
Neu [5]: 15%
RBC [5]: 658 x10_4/ul
Ret [5]: 11.7%
WBC [5]: 67.2 x10_2/uL
KIDNEY_L [5]: 0.9 g
KIDNEY_R [5]: 0.9 g
KIDNEY_TOTAL [5]: 1.9 g
LIVER [5]: 9.3 g
ALP [5]: 867.8 IU/L
ALT [5]: 35.6 IU/L
AST [5]: 68.8 IU/L
CRE [5]: 0.5 mg/dL
Ca [5]: 10.4 mg/dL
Cl [5]: 100.6 meq/L
DBIL [5]: 0.056 mg/dL
GLC [5]: 223.4 mg/dL
IP [5]: 10.3 mg/dL
K [5]: 4.5 meq/L
LDH [5]: 100.4 IU/L
Na [5]: 138.4 meq/L
PL [5]: 142 mg/dL
RALB [5]: 3.9 g/dL
TBIL [5]: 0.3 mg/dL
TC [5]: 81 mg/dL
TG [5]: 41.8 mg/dL
TP [5]: 5.7 g/dL
gamma-GTP [5]: 2.2 IU/L
TERMINAL_BW [6]: 189.5 g
APTT [6]: 17.8 s
Bas [6]: 0%
Eos [6]: 0.8%
Fbg [6]: 212.2 mg/dL
Hb [6]: 14.7 g/dL
Lym [6]: 68.4%
MCH [6]: 22.4 pg
MCHC [6]: 34.4%
MCV [6]: 65.2 fL
Mono [6]: 6.2%
Neu [6]: 24.6%
RBC [6]: 656.8 x10_4/ul
Ret [6]: 12.9%
WBC [6]: 66.9 x10_2/uL
KIDNEY_L [6]: 0.9 g
KIDNEY_R [6]: 0.9 g
KIDNEY_TOTAL [6]: 1.8 g
LIVER [6]: 8.3 g
ALP [6]: 725.6 IU/L
ALT [6]: 29.6 IU/L
AST [6]: 58.6 IU/L
CRE [6]: 0.5 mg/dL
Ca [6]: 10.3 mg/dL
Cl [6]: 102.4 meq/L
DBIL [6]: 0.086 mg/dL
GLC [6]: 219.6 mg/dL
IP [6]: 9 mg/dL
K [6]: 4.4 meq/L
LDH [6]: 110.6 IU/L
Na [6]: 137.6 meq/L
PL [6]: 133.4 mg/dL
RALB [6]: 3.9 g/dL
TBIL [6]: 0.3 mg/dL
TC [6]: 79.2 mg/dL
TG [6]: 19.2 mg/dL
TP [6]: 5.6 g/dL
gamma-GTP [6]: 1.2 IU/L
TERMINAL_BW [7]: 185.8 g
APTT [7]: 19.1 s
Bas [7]: 0%
Eos [7]: 0.2%
Fbg [7]: 216.8 mg/dL
Hb [7]: 14.5 g/dL
Lym [7]: 77.8%
MCH [7]: 21.6 pg
MCHC [7]: 32.9%
MCV [7]: 65.6 fL
Mono [7]: 5.8%
Neu [7]: 15.8%
RBC [7]: 669.4 x10_4/ul
Ret [7]: 12.3%
WBC [7]: 55.5 x10_2/uL
KIDNEY_L [7]: 0.9 g
KIDNEY_R [7]: 0.9 g
KIDNEY_TOTAL [7]: 1.8 g
LIVER [7]: 8 g
ALP [7]: 664.6 IU/L
ALT [7]: 21.4 IU/L
AST [7]: 50.4 IU/L
CRE [7]: 0.6 mg/dL
Ca [7]: 10.5 mg/dL
Cl [7]: 103.6 meq/L
DBIL [7]: 0.064 mg/dL
GLC [7]: 212.2 mg/dL
IP [7]: 8.9 mg/dL
K [7]: 4.9 meq/L
LDH [7]: 89.8 IU/L
Na [7]: 136.8 meq/L
PL [7]: 144.2 mg/dL
RALB [7]: 3.8 g/dL
TBIL [7]: 0.4 mg/dL
TC [7]: 90.2 mg/dL
TG [7]: 17.2 mg/dL
TP [7]: 5.7 g/dL
gamma-GTP [7]: 1.4 IU/L
TERMINAL_BW [8]: 185 g
APTT [8]: 17.5 s
Bas [8]: 0%
Eos [8]: 0.8%
Fbg [8]: 207 mg/dL
Hb [8]: 14.7 g/dL
Lym [8]: 87.6%
MCH [8]: 21.8 pg
MCHC [8]: 33.4%
MCV [8]: 65.3 fL
Mono [8]: 5.8%
Neu [8]: 5.8%
RBC [8]: 675 x10_4/ul
Ret [8]: 13%
WBC [8]: 72.5 x10_2/uL
KIDNEY_L [8]: 0.9 g
KIDNEY_R [8]: 0.9 g
KIDNEY_TOTAL [8]: 1.9 g
LIVER [8]: 8.6 g
ALP [8]: 722.6 IU/L
ALT [8]: 24.6 IU/L
AST [8]: 46.2 IU/L
CRE [8]: 0.5 mg/dL
Ca [8]: 11.1 mg/dL
Cl [8]: 103.4 meq/L
DBIL [8]: 0.022 mg/dL
GLC [8]: 191.2 mg/dL
IP [8]: 9.1 mg/dL
K [8]: 4.8 meq/L
LDH [8]: 102.8 IU/L
Na [8]: 140.6 meq/L
PL [8]: 136 mg/dL
RALB [8]: 4 g/dL
TBIL [8]: 0.3 mg/dL
TC [8]: 79.6 mg/dL
TG [8]: 21.8 mg/dL
TP [8]: 5.7 g/dL
gamma-GTP [8]: 1.6 IU/L
